pIC50: −log10 of the molar value. Like-named read-outs stand apart in the source and are kept apart here.

One experiment relates to KB tumour cell line. Put plainly: Cytotoxicity vis-à-vis the KB tumour cell line. The class given is cell-based. The following applies: Homo sapiens. On the procedure:
The cytotoxicity of the compound vis-à-vis the KB tumour cell line was measured as is described in Dao et al. (2003) Bioorg. Med. Chem. 11:2001-2006.

Another experiment addresses T1, SAPK3/p38g (Homo sapiens, UniProt P53778).
T1 sequence (P53778 1-367): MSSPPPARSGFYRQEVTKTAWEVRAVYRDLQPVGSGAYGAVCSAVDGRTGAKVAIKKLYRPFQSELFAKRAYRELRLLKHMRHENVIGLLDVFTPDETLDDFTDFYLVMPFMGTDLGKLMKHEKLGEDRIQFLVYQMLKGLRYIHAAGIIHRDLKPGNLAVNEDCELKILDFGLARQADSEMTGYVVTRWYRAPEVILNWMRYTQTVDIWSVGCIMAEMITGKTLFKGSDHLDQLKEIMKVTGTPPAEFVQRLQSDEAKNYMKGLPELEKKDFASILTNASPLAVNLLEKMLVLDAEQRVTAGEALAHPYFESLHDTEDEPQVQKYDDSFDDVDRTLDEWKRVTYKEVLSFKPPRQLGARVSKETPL
Put plainly: Protein kinase activity in the presence of compound. The format is biochemical. The following applies: read-out: Residual activity SAPK3/p38g. On the procedure: (§1) The action of the compound of formula (14) was tested on a selection of 29 different protein kinases. The activity of these enzymes was measured in the presence of 10 μM of compound, according to the general methodology described by Bain et al. (2003) Biochem. J. 371:199-204 and Davies et al. (2000) Biochem. J. 351:95-105.
(§2) Residual enzyme activity of protein kinases in the presence of inhibitor compounds at the concentration given (expressed as a percentage of the activity measured in the absence of inhibitors). The results obtained for gossypol and gossypolone are given by way of comparison.

Another experiment concerns the target SAPK2a/p38 (Homo sapiens, UniProt Q16539). The experiment is described as above. The format is biochemical. As to conditions: read-out: Residual activity SAPK2a/p38. On the procedure:
as §1, §2

A further experiment deals with MAPK2/ERK2 (Homo sapiens, UniProt P28482). The description is as above. The following applies: read-out: Residual activity MAPK2/ERK2. The format is biochemical. The method, then:
as §1, §2

The target of a further experiment is T2, SAPK4/p38d (Homo sapiens, UniProt O15264).
T2 sequence (O15264 1-365): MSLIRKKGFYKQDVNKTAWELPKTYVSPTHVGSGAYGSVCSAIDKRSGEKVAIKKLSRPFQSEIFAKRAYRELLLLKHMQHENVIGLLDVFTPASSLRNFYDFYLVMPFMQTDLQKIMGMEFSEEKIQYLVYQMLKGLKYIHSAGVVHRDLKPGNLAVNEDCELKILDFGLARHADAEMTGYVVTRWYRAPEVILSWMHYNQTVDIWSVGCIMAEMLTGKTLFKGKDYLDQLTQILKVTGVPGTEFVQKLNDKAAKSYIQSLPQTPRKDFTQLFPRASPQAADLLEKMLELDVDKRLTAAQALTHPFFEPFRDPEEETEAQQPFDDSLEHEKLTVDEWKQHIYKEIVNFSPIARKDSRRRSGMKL
The experiment is described as above. The class given is biochemical. As to conditions: read-out: Residual activity SAPK4/p38d. On the procedure:
as §1, §2

The next experiment has as its target T3, PRAK (Homo sapiens, UniProt Q8IW41).
T3 sequence (Q8IW41 1-473): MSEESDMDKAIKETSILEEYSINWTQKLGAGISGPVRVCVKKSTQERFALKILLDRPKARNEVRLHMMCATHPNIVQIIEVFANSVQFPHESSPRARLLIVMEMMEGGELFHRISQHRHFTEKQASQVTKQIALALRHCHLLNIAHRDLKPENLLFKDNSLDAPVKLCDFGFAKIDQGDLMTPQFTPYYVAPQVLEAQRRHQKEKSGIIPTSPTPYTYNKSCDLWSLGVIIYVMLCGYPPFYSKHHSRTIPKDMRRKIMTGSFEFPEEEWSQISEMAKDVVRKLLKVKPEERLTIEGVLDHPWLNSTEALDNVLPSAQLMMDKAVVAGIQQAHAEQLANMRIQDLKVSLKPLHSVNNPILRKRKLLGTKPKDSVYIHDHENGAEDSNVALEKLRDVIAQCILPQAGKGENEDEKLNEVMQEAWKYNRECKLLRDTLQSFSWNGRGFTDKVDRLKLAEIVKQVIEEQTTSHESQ
The experiment is described as above. The class given is biochemical. As to conditions: for remaining activity at 10 µM: read-out: Residual activity PRAK. On the procedure:
as §1, §2

The target in another experiment is T4, SGK (Homo sapiens, UniProt O00141).
T4 sequence (O00141 1-431): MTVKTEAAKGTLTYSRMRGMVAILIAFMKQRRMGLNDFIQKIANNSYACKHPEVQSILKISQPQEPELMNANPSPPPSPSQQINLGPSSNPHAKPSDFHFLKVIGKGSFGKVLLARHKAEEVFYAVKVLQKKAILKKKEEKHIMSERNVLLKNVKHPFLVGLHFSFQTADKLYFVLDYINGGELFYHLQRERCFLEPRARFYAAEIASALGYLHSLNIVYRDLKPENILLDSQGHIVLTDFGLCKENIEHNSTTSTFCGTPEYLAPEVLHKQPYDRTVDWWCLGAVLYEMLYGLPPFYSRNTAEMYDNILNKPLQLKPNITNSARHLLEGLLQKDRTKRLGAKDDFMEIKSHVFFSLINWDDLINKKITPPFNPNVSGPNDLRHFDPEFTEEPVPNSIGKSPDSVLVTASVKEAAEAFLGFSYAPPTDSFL
Described as above. The class given is biochemical. The following applies: for remaining activity at 10 µM: read-out: Residual activity SGK. On the procedure: as §1, §2

Where [1] appears, read: 10 μM compound, percentage of the activity measured in the absence of inhibitors.

Chain of SAPK2a/p38 (Q16539 whole entry): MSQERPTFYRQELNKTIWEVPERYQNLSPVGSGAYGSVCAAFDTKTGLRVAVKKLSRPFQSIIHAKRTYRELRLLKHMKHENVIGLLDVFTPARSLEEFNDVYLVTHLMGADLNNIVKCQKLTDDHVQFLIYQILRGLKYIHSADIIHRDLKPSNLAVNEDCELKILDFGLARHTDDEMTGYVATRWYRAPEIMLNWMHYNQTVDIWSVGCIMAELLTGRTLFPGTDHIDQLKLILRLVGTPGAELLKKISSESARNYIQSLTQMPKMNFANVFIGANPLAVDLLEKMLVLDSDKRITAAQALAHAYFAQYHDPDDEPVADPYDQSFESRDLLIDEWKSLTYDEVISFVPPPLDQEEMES
Chain of MAPK2/ERK2 (P28482 whole entry): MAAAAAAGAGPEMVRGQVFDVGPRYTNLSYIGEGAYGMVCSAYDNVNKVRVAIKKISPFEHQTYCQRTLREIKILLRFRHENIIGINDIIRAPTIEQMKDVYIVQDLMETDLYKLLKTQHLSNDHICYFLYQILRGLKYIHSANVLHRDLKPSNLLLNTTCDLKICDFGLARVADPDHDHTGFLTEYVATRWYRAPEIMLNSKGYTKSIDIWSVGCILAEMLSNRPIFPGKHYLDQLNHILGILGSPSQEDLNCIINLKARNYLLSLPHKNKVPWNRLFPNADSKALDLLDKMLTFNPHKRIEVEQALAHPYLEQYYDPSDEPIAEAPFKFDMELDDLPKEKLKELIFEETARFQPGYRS

As to `CC1=C(C2=C(C)C(=O)c3c(c(O)c(O)c(O)c3C(C)C)C2=O)C(=O)c2c(O)c(O)c(O)c(C(C)C)c2C1=O` [Compound (4), 6,7,8,6′,7′,8′-hexahydroxy-5,5′-diisopropyl-3,3′-dimethyl-[2.2′]binaphthalenyl-1,4,1′,4′-tetraone], the negative logarithm of the IC50 (pIC50) (in general, the IC50 on a negative log10 scale, so that one unit is a factor of ten) with KB tumour cell line was 6.00. Also, the remaining activity at 10 µM at SAPK3/p38g stood at 89%; on SAPK2a/p38, 105%; at MAPK2/ERK2 it was 52%; at SAPK4/p38d it was 88%; on PRAK it was 9%; at SGK it was 4%. In addition, the “Reduction of the activity of PRAK” value on PRAK (10 μM compound) was determined as 91%. For the same compound, at SGK (10 μM compound), the “Reduction of the activity of SGK” value is 96%.
With `CC1=C(C2=C(C)C(=O)c3c(c(CSCCO)c(O)c(O)c3C(C)C)C2=O)C(=O)c2c(CSCCO)c(O)c(O)c(C(C)C)c2C1=O` [Compound (14), 6,7,6′,7′-tetrahydroxy-8,8′-bis-(2-hydroxy-ethylsulphanylmethyl)-5,5′-diisopropyl-3,3′-dimethyl-[2,2′]binaphthalenyl-1,4,1′,4′-tetraone], the remaining activity at 10 µM at SAPK3/p38g (setting [1]) turned out to be 76%; on SAPK2a/p38 (setting [1]), 102%; on MAPK2/ERK2 (setting [1]), 58%; at SAPK4/p38d (setting [1]), 85%; on PRAK (setting [1]) it was 9%; on SGK (setting [1]), 7%. For the same compound, the “Reduction of the activity of PRAK” value on PRAK (10 μM compound) worked out at 91%. Besides, the “Reduction of the activity of SGK” value at SGK (10 μM compound) worked out at 93%.
For the compound `Cc1cc2c(C(C)C)c(O)c(O)c(C=O)c2c(O)c1-c1c(C)cc2c(C(C)C)c(O)c(O)c(C=O)c2c1O` [Gossypol, gossypol], the remaining activity at 10 µM stood at 108% on SAPK3/p38g; 99% at SAPK2a/p38; 65% at MAPK2/ERK2; 66% on SAPK4/p38d; 48% at PRAK; 14% on SGK.
Regarding `CC1=C(C2=C(C)C(=O)c3c(c(C=O)c(O)c(O)c3C(C)C)C2=O)C(=O)c2c(C=O)c(O)c(O)c(C(C)C)c2C1=O` [Gossypolone, gossypolone, reference compound], the remaining activity at 10 µM on SAPK3/p38g was 83%; on SAPK2a/p38, 108%; at MAPK2/ERK2, 46%; at SAPK4/p38d, 75%; on PRAK it was 9%; on SGK, 3%.

The values above are taken from patent US7851510B2, “Gossypol derivatives, production method thereof and uses of same” (Centre National de la Recherche Scientifique (C.N.R.S.), priority 2004, dated 2010).
